US10765763B2, “Radioligands for myelin” (CASE WESTERN RESERVE UNIVERSITY, priority 2016, dated 2020)
Entries after “also recorded” stand apart in the source; their conditions may differ.

What was measured:
[1] = system: myelin; experiment: In vitro detection of focal demyelination in LPC rat model; assay type: binding; settings: in vitro tissue staining
Description: Sprague-Dawley female rats (220-250 g, 8 weeks old) were anesthetized and positioned in a stereotaxic frame (Stoelting). A small incision was made in the scalp, and the corpus callosum was targeted using the following stereotaxic coordinates, relative to bregma: anterior-posterior, 0.0 mm; medial-lateral, 2.0 mm; and dorsal-ventral, 3.4 mm A small hole was drilled in the skull, and a 26S-gauge needle attached to a 10 μL Hamilton Syringe was lowered into the corpus callosum according to the dorsal-ventral coordinate. A microinjector pump (Stoelting) controlled the infusion of 6 μL of lysolecithin (LPC, 0.1% in saline) at a rate of 0.25 μL/min, after which the needle was left in place for 2 min in order to prevent liquid reflux out of the brain parenchyma. The incision was then closed using 5-0 Ethicon sutures, and the animals were allowed to recover on a heating pad. After 5-7 days, the animals were ready for study.
Five days after surgery, the rats were anesthetized and perfused with saline followed by 4% PFA. […] Sections were then examined under a microscope (Leica DM4000B, Leica Microsystem Inc., Buffalo Grove, Ill., USA) equipped for fluorescence (DFC7000T), and images of the stained mouse whole brain sections were acquired with the same exposure time. […]

[2] = system: myelin; experiment: In situ staining of compound 21 in wild-type mice; assay type: in vivo, mouse; settings: WT mice, 1.0 mg (50 mg/kg) tail vein, 1 h
Description: Wild-type mice were administered the newly synthesized compounds (40 mg/kg) via tail vein injection, and 30-60 min later the mice were perfused transcardially with saline followed by 4% PFA in PBS. Brains and spinal cords were then removed, postfixed by immersion in 4% PFA overnight, dehydrated in 30% sucrose solution, cryostat sectioned at 100 μm, mounted on superfrost slides, and images were acquired directly using a Leica fluorescent microscope.
Following the in vitro studies, we then investigated the ability of compound 21 to readily enter the brain and bind to myelin in situ. A dose of 1.0 mg of compound 21 (50 mg/kg) was administered via the tail vein to wild-type (WT) mice. One hour after injection, the mice were perfused with saline followed by 4% paraformaldehyde (PFA) and the brain and spinal cord were removed and sectioned. The distribution of compound 21 was then directly examined under a fluorescent microscope.

[3] = system: myelin; experiment: In situ histological staining of SCI (T13) spinal cord after microPET/CT; assay type: in vivo, rat; settings: SCI rats, 60 min after tail vein injection
Description: After microPET imaging studies, the rats were administered compound 21 (3-5 mg) via tail vein injection, and 60 min later the rats were perfused transcardially with saline followed by 4% PFA in PBS. Spinal cords were then removed, postfixed by immersion in 4% PFA overnight, dehydrated in 30% sucrose solution, cryostat sectioned at 100 μm, mounted consecutively on superfrost slides, and images were sequentially acquired directly using a Leica fluorescent microscope to give a series of 2D microscopic images along the length of the spinal cord. Slices were aligned sequentially using a semiautomated image registration algorithm. Starting from the first slice image, the current slice was used as the reference image for alignment and the next slice was the floating image. The floating image was aligned via control point pairs between corresponding anatomic features in the two images. A 2D rigid-body transformation (translation, rotation) was used to transform the floating image to align with the reference and a minimum of three control point pairs were used for the transformation. […] All slices in the sequence were aligned by this technique, giving a 3D reconstructed fluorescence image volume. Image volumes from fluorescence, PET, and CT were visualized in Amira using volume rendering and aligned based on the shape of the spine and fiducials from the vertebrae. […]

[4] = Quantitative microPET/CT imaging in WT rats, Example 2; assay type: in vivo, rat
Description: (§1) For better anatomic localization, CT co-registration was applied.
Following radiosynthesis, the pharmacokinetic profile of [^18F]21 was fully characterized by quantitative microPET/CT imaging in WT rats (n=3). […] The brain radioactivity peaked at 3 min postinjection followed by rapid clearance before reaching a plateau at 40-60 min postinjection.

[5] = system: myelin; experiment: In situ autoradiography of [18F]21 in mouse brain; assay type: in vivo; settings: coronal, after tail vein injection
Description: Wild-type mice were euthanized at 30 min post iv injection of [^18F]21 (111 MBq, 3.0 mCi). The brains were rapidly removed, placed in OCT embedding medium, and frozen at −20° C. After reaching equilibrium at this temperature, the brains were coronally sectioned at 60 μm on a cryostat and mounted on superfrost slides. After drying by air at room temperature, the slides were put in a cassette and exposed for 20 min to film to obtain images.
To validate the PET results and confirm that the PET signals were indeed from specific binding to myelin, we conducted ex vivo autoradiography in the mouse brain following administration of [^18F]21 through tail vein injections. After 1 h, the mouse brain was dissected for coronal tissue sectioning. […] Thus, combination of in situ autoradiography and PET imaging confirmed that [^18F]21 binds specifically to myelin in vivo.

[6] = system: myelin; experiment: Quantitative microPET/CT imaging in Shiverer and WT mice; assay type: in vivo, mouse; settings: microPET
Description: as §1
To further evaluate the in vivo binding specificity of [^18F]21, we investigated the pharmacokinetic profiles of [^18F]21 in a Shiverer mouse model that is deficient in myelin in the brain. Thus, the pharmacokinetic profiles of [^18F]21 were quantitatively compared between Shiverer mice (C3Fe.SWV-Mbpshi/J, n=2) and age-matched WT mice (CB57J, n=2).
Dynamic emission scans were acquired for 60 min in 3D list mode immediately after [^18F]21 (0.3 mCi each mouse, 11.1 MBq) was administered. The brain uptake of [^18F]21 was lower in the Shiverer brain than in the WT littermates (1.25 vs 1.64). After the brain concentration of [^18F]21 reached a plateau, the SUVs from 40 to 60 min were summarized and compared.

[7] = system: myelin; experiment: Quantitative microPET/CT imaging of spinal cord in rat SCI model; assay type: in vivo; settings: for uptake in T13: normalized to average spine uptake
Description: Sprague-Dawley female rats (220-250 g, 8 weeks old) were anesthetized and a restricted laminectomy was conducted to expose the dorsal surface of T13. The vertebral column between T12 and L1 was then stabilized with clamps and forceps fixed to the base of an Infinite Horizon impact device. The midpoint of T13 was impacted with a force of 250 kDyn using a 2.5 mm stainless steel impactor tip, which was used to induce a moderately severe contusive injury to the spinal cord. The musculature was then sutured over the laminectomy site and the skin closed with wound clips followed by subsequent treatment with Marcaine at the incision site. The force/displacement graph was used to monitor impact consistency. After surgery, the animals were carefully monitored daily for pain and body weight with manual bladder expression 2-3 times daily to stimulate reflex voiding until the animals could urinate independently.
as §1
So far, imaging of the spinal cord remains a great challenge. […] Next, we asked whether [18F]21 PET is capable of in vivo imaging of myelin deficiency or myelin damage in living animal models. We conducted [^18F]21-PET imaging in a rat model of thoracic contusive SCI. In this model, the contusion was made at T13 to introduce demyelination. In vivo [^18F]21 PET imaging was performed before (as a baseline scan) and 1 day after contusion. The uptake of [^18F]21 in every spine segment was then normalized to the average spine uptake. […] After microPET/CT imaging, we conducted in situ histological staining of the spinal cord 60 min after injection of nonlabeled compound 21 through the tail vein.

brain uptake ([4]; WT rats (n=3), microPET/CT) | time constant of clearance ([4]; WT rats, calculated from fitted time-radioactivity curve) [min] | time of peak brain radioactivity ([4]; WT rats, postinjection) [min] | time of plateau of brain radioactivity ([4]; WT rats, postinjection) [min] | SMILES | detection of demyelinated lesion by fluorescent staining [1] | brain/spinal cord entry and in situ myelin staining [2] | in situ histological staining of SCI (T13) tissue section [3] | autoradiographic labeling [5] | brain uptake ([6]; Shiverer mouse brain) | brain uptake ([6]; WT littermates) | uptake in L1 ([7]; 1 day post-T13 contusion) | uptake in T12 ([7]; 1 day post-T13 contusion) | uptake in T13 ([7]; SCI group, 1 day post-T13 contusion) | uptake in T13 ([7]; baseline scan before contusion) | uptake in L1 ([7]; before contusion) | uptake in T12 ([7]; before contusion)
 |  |  |  | CNc1ccc(/C=C/c2ccc(NCc3cn(CCF)nn3)cc2)cc1 [Compound 21, (E)-N-((1-(2-Fluoroethyl)-1H-1,2,3-triazol-4-yl)methyl)-4-(4-(methylamino)styryl)aniline] | capable of detecting the demyelinated focal lesion by fluorescent staining; also recorded: can be used to detect demyelinated lesion | readily entered the brain and spinal cord and localized in all the myelinated regions in proportion to the myelin content; also recorded: crosses the BBB and stains myelinated areas of the mouse brain | showed that a demyelinated lesion was present at the dorsal column |  |  |  |  |  |  |  |  | 
high uptake in the brain | 19.45 | 3 | 40 to 60 | CNc1ccc(/C=C/c2ccc(NCc3cn(CC[18F])nn3)cc2)cc1 [[^18F]21] |  |  |  | distinctly labeled the corpus callosum | 1.25 | 1.64 | 1.08 | 0.99 | 0.81 | 1.02 | 1.05 | 0.99
